Reference: patent US5646131A, “Method for solubilizing drugs using cyclodextrins and carboxylic acids” (The Arab Company For Drug Industries And Medical …, priority 1995, dated 1997)
In brackets after ≈: the same amount, converted by molar mass. Where two headings read alike, the source gives them in different places.

Legend:
physchem = conditions: water
Experimental: (§1) The solubilities (in mg/ml) of the drugs were investigated at 30° C., in water; in water containing 2% β-cyclodextrin; and in aqueous solution of 2% selected cyclodextrin and 1% selected polyfunctional acid or corresponding salt.

[1] = with β-cyclodextrin; Menard et al 1990; cited from earlier work
[2] = 30° C.; for Solubility in 2% aq. beta CD soln.: water containing 2% β-cyclodextrin; for Solubility, beta-cyclodextrin + citric acid / Solubility, beta-cyclodextrin + glutaric acid / Solubility, beta-cyclodextrin + lactic acid / Solubility, beta-cyclodextrin + tartaric acid: 2% β-cyclodextrin; for Solubility, beta-cyclodextrin + lactic acid: 1% lactic acid
Experimental: as §1

SMILES: CC(C)Cc1ccc(C(C)C(=O)O)cc1 (stereo not shown) [Ibuprofen]
- Solubility, beta-cyclodextrin + glutaric acid (*trisodium salt) (2% beta-cd, 1% glutarate salt): 3000 µg/mL
- Solubility, beta-cyclodextrin + tartaric acid (*trisodium salt) (2% beta-cd, 1% tartrate salt): 1360 µg/mL
- Solubility in 2% aq. beta CD soln. (water, 2% beta-cyclodextrin): 690 µg/mL (≈ 3340 µM)
- solubility (physchem): < 10 µg/mL
- Relationship between solubility and concentration at different pH [1]: the relationship between solubility and concentration is the same at different pH levels

SMILES: CN1C(C(=O)Nc2ccccn2)=C(O)c2ccccc2S1(=O)=O [Piroxicam]
- Solubility in 2% aq. beta CD soln. [2]: 72 µg/mL (≈ 217 µM)
- Solubility in water ([2]; water): insoluble

SMILES: COc1cc(N)c(Cl)cc1C(=O)NC1CCN(CCCOc2ccc(F)cc2)CC1OC (stereo not shown) [Cisapride]
- solubility (physchem): 3 µg/mL (≈ 6.44 µM)
- Solubility, beta-cyclodextrin + citric acid ([2]; 1% citric acid, aqueous): 550 µg/mL
- Solubility, beta-cyclodextrin + glutaric acid ([2]; 1% glutaric acid, aqueous): 2070 µg/mL
- Solubility, beta-cyclodextrin + lactic acid ([2]; aqueous): 11400 µg/mL
- Solubility, beta-cyclodextrin + tartaric acid ([2]; 1% tartaric acid, aqueous): 4380 µg/mL
- Solubility in 2% aq. beta CD soln. [2]: 15 µg/mL (≈ 32.2 µM)

SMILES: CC(C)(C)c1ccc(C(O)CCCN2CCC(C(O)(c3ccccc3)c3ccccc3)CC2)cc1 (stereo not shown) [Terfenadine]
- solubility (physchem): < 10 µg/mL
- Solubility, alpha-cyclodextrin + citric acid ([2]; 2% α-cyclodextrin, 1% citric acid, aqueous): 2150 µg/mL
- Solubility, alpha-cyclodextrin + glutaric acid ([2]; 2% α-cyclodextrin, 1% glutaric acid, aqueous): 7170 µg/mL
- Solubility, alpha-cyclodextrin + tartaric acid ([2]; 2% α-cyclodextrin, 1% tartaric acid, aqueous): 1310 µg/mL
- Solubility, beta-cyclodextrin + citric acid ([2]; 1% citric acid, aqueous): 5680 µg/mL
- Solubility, beta-cyclodextrin + glutaric acid ([2]; 1% glutaric acid, aqueous): 5490 µg/mL
- Solubility, beta-cyclodextrin + lactic acid ([2]; aqueous): 8870 µg/mL
- Solubility, beta-cyclodextrin + tartaric acid ([2]; 1% tartaric acid, aqueous): 5210 µg/mL
- Solubility, gamma-cyclodextrin + citric acid ([2]; 2% γ-cyclodextrin, 1% citric acid, aqueous): 2200 µg/mL
- Solubility, gamma-cyclodextrin + glutaric acid ([2]; 2% γ-cyclodextrin, 1% glutaric acid, aqueous): 6080 µg/mL
- Solubility, gamma-cyclodextrin + tartaric acid ([2]; 2% γ-cyclodextrin, 1% tartaric acid, aqueous): 1220 µg/mL
- Solubility in 2% aq. beta CD soln. [2]: 10 µg/mL (≈ 21.2 µM)
